From publication PMC11233548 (Communications Biology, 2024)
Non-standard residues stand in square brackets, D forms with d. Residues, ends and D or L forms follow the SMILES beside them. AEEA = NCCOCCOCC(=O)O

Columns and labels:
[1] = test system: Hs 578 T cells; assay: 2D cell viability (alamarBlue), Hs 578 T; format: cell-based, human; details: 48 h treatment, n = 3
[2] = test system: H-RasG12V nanoclustering; assay: H-RasG12V nanoclustering-BRET in HEK cells; format: cell-based, human
[3] = test system: T24 cells (pERK, pAkt); format: cell-based, human; details: n = 3–8
[4] = test system: Hs 578 T, T24, MIA PaCa-2, and HEK cells; assay: Drug sensitivity score DSS3 from viability data; format: cell-based, human; details: 48 h; Fig. 6e
Method: The cells were seeded in low attachment, suspension cell culture 96-well plates (Greiner, #655185). About 2000 T24, MIA PaCa-2, and HEK cells and 5000 Hs 578 T cells were seeded per well in a 50 µL complete growth medium. 24 h later, the cells were treated with 50 µL 2× peptide diluted in the growth medium or 0.2% (v/v) of the positive control, benzethonium chloride stock at 100 mM in H2O (Sigma-Aldrich, #B8879). […] Using a CLARIOstar plate reader the fluorescence signal (λexcitation 560 ± 5 nm and λemission 590 ± 5 nm) was recorded. The florescence signal was normalized against the negative control, here DMSO in buffer, representing 100% viability. Additionally, the data was analyzed using Breeze 2.0 to determine a drug sensitivity score (DSS), a normalized area under the curve (AUC). Here we plot only one of the output values from the Breeze pipeline, the DSS3 value, which was calculated as DSS3=DSS2x2−x1/Cmax−Cmin where DSS2 is given by the equation DSS2=DSS1/loga
And DSS1 is given by the equation DSS1=AUC−t(x2−x1)/(100−t)(Cmax−Cmin)
After dose–response inhibition data fitting with a logistic function, the area under the curve (AUC) was determined. The activity threshold (t) was set to ≥10%. The maximum (Cmax) and minimum (Cmin) concentrations used for screening of the inhibitors, with Cmax = x2 and x1 concentration with minimal activity t. […]

[5] = test system: MIA PaCa-2 cells (pERK, pAkt); assay: Immunoblot of EGF-induced pERK and pAkt in MIA PaCa-2; format: cell-based, human; details: 2 h, EGF 200 ng/mL 10 min; KRAS-G12C; n = 3–8
[6] = biological target: Gal1/B-RBD (Homo sapiens, UniProt P15056); assay: Gal1/B-RBD BRET in HEK cells; format: cell-based
[7] = test system: MIA PaCa-2 cells; assay: 2D cell viability (alamarBlue), MIA PaCa-2; format: cell-based, human; details: 48 h treatment, n = 3
[8] = test system: HEK cells (pERK, pAkt); format: cell-based, human; details: 2 h, EGF 200 ng/mL 10 min; n = 3–8
[9] = test system: Hs 578 T cells (pERK, pAkt); assay: Immunoblot of EGF-induced pERK and pAkt in Hs 578 T; format: cell-based, human; details: 1–20 µM, 2 h, EGF 200 ng/mL 10 min; HRAS-G12D; n = 3–8
[10] = test system: T24 cells; assay: 2D cell viability (alamarBlue), T24; format: cell-based, human; details: 48 h treatment, n = 3
[11] = test system: B-Raf; assay: Split-luciferase KinCon B-Raf biosensor; format: cell-based; details: expression 48 h, HEK cells; n = 3
Method: HEK 293-EBNA cells were seeded in a 12-well plate (Greiner Bio-One, #665180) in 1 ml complete DMEM and grown for 24 h. The next day 0.5 µg of KinCon sensor plasmid pcDNA-RlucF1-BRAF-RlucF2 was transfected along with 0.1–0.5 µg of modulator plasmid encoding either SNAP-H-RasG12V or Gal1) using jetPRIME as per manufacturer protocol; pcDNA3.1(−) Thermo Fisher Scientific, #V79520) was used to buffer the total amount of plasmid load per well to 1 µg. After 48 h of expression cells were collected and washed in PBS. Cells from one well of the 12-well plate were resuspended in 200 µL of PBS and 2× 90 µL were pipetted into a white 96-well plate (Nunc, Thermo Fisher Scientific, #236108). Then coelenterazine h was added to a final concentration of 5 µM and the luminescence signal at 480 ± 10 nm was collected for 10 s. The basically background-free signal was normalized against the signal without modulator plasmid.

[12] = test system: A-RBD-D75A; assay: BRET-titration Gal1/A-RBD-D75A; format: cell-based, human; details: versus wild-type, n = 3
Method: We employed the BRET2 system where RLuc8 and GFP2 luminophores were predominantly used as the donor and acceptor, respectively, with coelenterazine 400a as the substrate. A CLARIOstar plate reader from BMG Labtech was used for BRET and fluorescence intensity measurement. The BRET protocol was adapted as described by us[73].
In brief, 150,000–200,000 HEK293-EBNA cells were seeded per well of a 12-well plate and grown for 24 h in 1 mL of complete DMEM. The next day, the cells were transfected with ~1 µg of plasmid DNA per well using a 3 µL jetPRIME transfection reagent. For the donor saturation titration, 25 ng of the donor plasmid was transfected with an acceptor plasmid concentration ranging from 25 to 1000 ng. […]
First, the fluorescence intensity of GFP2 was measured (λexcitation 405 ± 10 nm and λemission 515 ± 10 nm), which is directly proportional to the acceptor expression (RFU). Then 10 µM of coelenterazine 400a (GoldBio, #C-320) was added to the cells, and BRET readings were recorded simultaneously at λemission 410 ± 40 nm (RLU) and 515 ± 15 nm (BRET signal). Emission intensity measured at 410 nm is directly proportional to the donor expression. The raw BRET ratio was calculated as the ratio of BRET signal/RLU. […] The relative expression was calculated as the ratio of RFU/RLU. […]

[13] = biological target: Gal1; parameters: method as in PMID 24569991, PMID 7890630; details: dimerization; read-out: KD, Gal1 dimer; cited from earlier work
[14] = biological target: RBD of Raf proteins; parameters: method as in PMID 27087647; details: direct binding; read-out: KD, Gal1 to RBD of Raf proteins; cited from earlier work
[15] = biological target: T1, B-RBD (Homo sapiens, UniProt P15056); assay: QRET assay, Eu-L5URcore binding to B-RBD; details: Eu-L5URcore (29 nM), B-RBD twofold dilutions, MT2 quencher, 10 mM HEPES pH 7.4, 10 mM NaCl, 30 min, ~22 °C, time-resolved luminescence, n = 2, read-out: IC50
T1 construct: GST-tagged B-Raf-RBD (residues 155–227 of human B-Raf); GST (N); made in house; host or cells: E. coli BL21 Star (DE3)pLysS
Method: The QRET assays were modified from our previously described quenching luminescence assays[69]–[71]. Ac-K-L5URcore was conjugated with nonadentate europium chelate, {2,2′,2′′,2’“-{[4′-(4’“-isothiocyanatophenyl)-2,2′,6′,2′′-terpyridine-6,6′′-diyl]bis(methylene-nitrilo)}tetrakis(acetate)}europium(III) (QRET Technologies, Finland) via the epsilon amine of the N-terminal lysine that was added to the L5UR-core peptide sequence and purified with analytical reverse-phase HPLC. The current homogeneous QRET binding assay is based on the quenching of non-bound Eu-K-L5URcore with MT2 quencher (QRET Technologies), while bound labeled peptide is luminescent. In the assay, purified B-RBD or Gal1 were twofold diluted in an assay buffer containing 10 mM HEPES pH 7.4 and 10 mM NaCl added in 5 μL to a white low-volume, round bottom 384-well plate. Eu-K-L5UR core peptide (29 nM), mixed with MT2 according to the manufacturer’s instructions in the assay buffer supplemented with 0.01% (v/v) Triton X-100, was added in 5 μL volume to wells, and incubated for 30 min at ~22 °C on a shaker. The luminescence was measured with Tecan Spark multimode microplate reader (Tecan, Austria) in time-resolved mode using λexcitation 340 ± 40 nm and λemission 620 ± 10 nm with 800 μs delay and 400 μs window times.

[16] = biological target: T2, C-RBD (Homo sapiens, UniProt P04049); assay: Competitive fluorescence polarization, displacement of F-L5UR from C-RBD; format: binding; details: F-L5UR (5 nM), C-RBD (200 nM), pH 7.4, 30 min, ~22 °C, n = 3
T2 construct: GST-tagged C-Raf-RBD (residues 50–134 of human C-Raf); GST (N, cleaved yes); made in house; host or cells: E. coli BL21 Star (DE3)pLysS

[17] = biological target: GST-B-RBD (Homo sapiens, UniProt P15056); assay: Competitive fluorescence polarization, displacement of F-L5UR from GST-B-RBD; format: binding; details: competitive fluorescence polarization with F-L5UR; Fig. 2e: F-L5UR (10 nM), GST-B-RBD (15 µM); method: 5 nM F-L5UR, 200 nM RBD; pH 7.4; 30 min, ~22 °C; n = 3
Chain of GST-B-RBD (P15056 155-227): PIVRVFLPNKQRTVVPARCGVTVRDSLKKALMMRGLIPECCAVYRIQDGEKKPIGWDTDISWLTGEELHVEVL

Chain of Gal1/B-RBD (P15056 155-227): as above
T1 sequence (P15056 155-227): as above

## CC(=O)NCC(=O)N[C@@H](CCCNC(=N)N)C(=O)N[C@@H](CCCCN)C(=O)N[C@@H](CCCCN)C(=O)N[C@@H](CCCNC(=N)N)C(=O)N[C@@H](CCCNC(=N)N)C(=O)N[C@@H](CCC(N)=O)C(=O)N[C@@H](CCCNC(=N)N)C(=O)N[C@@H](CCCNC(=N)N)C(=O)N[C@@H](CCCNC(=N)N)C(=O)N1CCC[C@H]1C(=O)N[C@@H](CCC(N)=O)C(=O)NCCOCCOCC(=O)N[C@@H](CO)C(=O)N[C@@H](CCCNC(=N)N)C(=O)N[C@@H](CO)C(=O)N[C@@H](CO)C(=O)N[C@@H](CC(C)C)C(=O)N[C@@H](CCCNC(=N)N)C(=O)N[C@@H](CO)C(=O)N[C@@H](CCCNC(=N)N)C(=O)N[C@@H](Cc1c[nH]c2ccccc12)C(=O)NCC(=O)N[C@@H](CCCNC(=N)N)C(=O)N[C@@H](Cc1ccccc1)C(=O)N[C@@H](CC(C)C)C(=O)N[C@@H](CC(C)C)C(=O)N[C@@H](CCC(N)=O)C(=O)N[C@@H](CCCNC(=N)N)C(=O)NCC(=O)N[C@@H](CO)C(=O)N[C@@H](Cc1c[nH]c2ccccc12)C(=O)N[C@H](C(=O)NCC(=O)N1CCC[C@H]1C(=O)N[C@@H](CCCNC(=N)N)C(N)=O)[C@@H](C)O [TAT-L5URcore] (Ac-GRKKRRQRRRPQ[AEEA]SRSSLRSRWGRFLLQRGSWTGPR-NH2)
[1]
  proliferation/viability, Hs 578 T: specifically reduced by TAT-L5URcore
[2]; peptide added to HEK cells, 2 h incubation, 37 °C, donor:acceptor 1:5, 200 ng Gal1 plasmid, n = 3
  EC50: 19 ± 1 µM
[3]
  EGF-induced pAkt levels, T24: reduced EGF-induced cellular pERK-and pAkt-levels in a dose-dependent manner
  EGF-induced pERK levels, T24: reduced EGF-induced cellular pERK-and pAkt-levels in a dose-dependent manner
[4]
  anti-proliferative effect (DSS3): higher anti-proliferative effect of TAT-L5URcore as compared to TAT-mutL5URcore
[5]
  pAkt levels, MIA PaCa-2: pAkt-levels were reduced at 20 µM
  pERK levels, MIA PaCa-2: pERK remained unaffected
[6]
  EC50: 16 ± 1 µM
[7]
  proliferation/viability, MIA PaCa-2: this was also observed for KRAS-mutant MIA PaCa-2
[8]
  pAkt levels, HEK: slightly induced by TAT-L5URcore, as were pAkt-levels
  pERK levels, HEK: slightly induced
[9]
  EGF-induced pAkt levels, Hs 578 T: reduced EGF-induced cellular pERK-and pAkt-levels in a dose-dependent manner
  EGF-induced pERK levels, Hs 578 T: reduced EGF-induced cellular pERK-and pAkt-levels in a dose-dependent manner
[10]
  proliferation/viability, T24: specifically reduced by TAT-L5URcore

## Gal1: galectin-1, H-Ras nanocluster scaffold
[2]; expression 48 h, donor:acceptor 1:5, n = 4
  effect of Gal1 expression on H-RasG12V nanoclustering-BRET: increased H-RasG12V nanoclustering-BRET in a dose-dependent manner
[11]
  luminescence signal of KinCon B-Raf biosensor: likewise reduced the luminescence signal
[12]
  BRETtop, Gal1/A-RBD-D75A: significantly reduced
[13]
  Kd: 7 µM
[14]
  Kd: 0.106 ± 0.04 µM

## CC(=O)N[C@@H](CO)C(=O)N[C@@H](CCCNC(=N)N)C(=O)N[C@@H](CO)C(=O)N[C@@H](CO)C(=O)N[C@@H](CC(C)C)C(=O)N[C@@H](CCCNC(=N)N)C(=O)N[C@@H](CO)C(=O)N[C@@H](CCCNC(=N)N)C(=O)N[C@@H](Cc1c[nH]c2ccccc12)C(=O)NCC(=O)N[C@@H](CCCNC(=N)N)C(=O)N[C@@H](Cc1ccccc1)C(=O)N[C@@H](CC(C)C)C(=O)N[C@@H](CC(C)C)C(=O)N[C@@H](CCC(N)=O)C(=O)N[C@@H](CCCNC(=N)N)C(=O)NCC(=O)N[C@@H](CO)C(=O)N[C@@H](Cc1c[nH]c2ccccc12)C(=O)N[C@H](C(=O)NCC(=O)N1CCC[C@H]1C(=O)N[C@@H](CCCNC(=N)N)C(N)=O)[C@@H](C)O [L5URcore] (Ac-SRSSLRSRWGRFLLQRGSWTGPR-NH2)
[15]
  EC50 (B-RBD binding to Eu-L5URcore): 18 ± 1 µM
[16]
  IC50: 14 ± 6 µM
[17]
  IC50: 41 ± 1 µM
